Key:
HT29 cells = experiment: Cytotoxicity MTS assay, HT29; assay type: cell-based; conditions: Homo sapiens, HT-29, 72 hours
Procedure: (§1) In order to confirm the specific cytotoxicity of the drugs, the cultured cells were treated with 0.05% trypsin/EDTA (0.5% trypsin EDTA (10×), Product No.: 15400-054, GIBCO) to detach them from the culture dish, and 3,000 cells (KM12C) or 2,000 cells (HT29, Colo 320 HSR) were dispensed into each well.
(§2) After 24 hours, sample compounds were dissolved in DMSO (Product No.: D8418-250ML, SIGMA) to make 10 mM stock solutions. As the sample compounds, the compounds synthesized in the examples of the present invention and the compounds of the comparative examples were used.
(§3) The cells were treated with the sample compound dilutions, and cultured in a 5% CO2 incubator at 37° C. for 72 hours.
(§4) Thereafter, 20 μL of MTS solution (CellTiter™ 96 Aqueous One Solution Cell Proliferation Assay, Product No.: G3581, Promega) was dispensed into each well and mixed well, and the cells were incubated for 1 to 4 hours at 37° C. in a 5% CO2 incubator.

RON kinase = molecular target: T1, RON kinase (Homo sapiens, UniProt Q04912); experiment: RON kinase enzyme inhibitory activity, FRET (TR-FRET) technique; assay type: biochemical; conditions: 60 min reaction
T1 construct: purchased Carna Bioscience
Procedure: The enzyme inhibitory activity (IC50) of the thienopyridine derivative was measured using FRET (fluorescence resonance energy transfer) technique. RON kinase (Carna Bioscience) was diluted with a kinase assay buffer (50 mM HEPES pH 7.5, 1 mM EGTA, 10 mM MgCl2, 2 mM DTT, and 0.01% Tween-20) to a concentration of 2× (0.4 nM) the final reaction concentration and the dilution was added to a 384-well plate at 5 μL/well. As sample compounds, the compounds synthesized in the examples of the present invention and the compounds of the comparative examples were used. The sample compounds were respectively dissolved in 100% DMSO to obtain 1 mM stock solutions, which were then subjected to eight 10-fold serial dilutions. The sample compounds were diluted with the kinase assay buffer to a concentration of 4× the final reaction concentration, and the dilutions were added to the 384-well plate at 2.5 μL/well. The plate was incubated at room temperature for 15 minutes. Next, 0.25 M ATP solution (Sigma Aldrich) was diluted with the kinase reaction buffer to a concentration of 4× (60 μM) the final reaction concentration, and a tyrosine peptide substrate (Perkin-Elmer) was diluted therein to a concentration of 4× (400 nM) the final reaction concentration. The dilution was added to the 384-well plate at 2.5 μL/well. Then, the 384-well plate was incubated at room temperature and the reaction was allowed to proceed for 60 minutes. After 60 minutes, EDTA (Sigma Aldrich) was diluted with TR-FRET detection buffer (Perkin-Elmer) to a concentration of 4× (40 mM) the final reaction concentration. A europium-labeled anti-phosphotyrosine antibody (Perkin-Elmer) was diluted in the above EDTA dilution to a concentration of 4× (8 nM) the final reaction concentration to prepare a stop solution of the RON kinase reaction. The stop solution was added to the 384-well plate at 10 μL/well to terminate the reaction, and the plate was incubated at room temperature for 60 minutes. Thereafter, the plate was read on Victor X5 plate reader (Perkin-Elmer). At this time, the excitation wavelength was 340 nm and the emission wavelengths were 620 nm and 665 nm. The IC50 values of the sample compounds were determined using GraphPad Prism™ 5 by expressing the emission energy at 665 nm as a function of the sample compound concentration.

[1] = system: RON-mutated (Δ160) HT-29 colon cancer cell line; experiment: Cell killing efficacy, trypan blue exclusion assay, HT-29; assay type: cell-based; conditions: HT29 cell, 48 hours
Procedure: (§5) Two colon cancer cell lines, RON-activated KM12C (80015, KCLB, MEM+10% FBS) and RON-mutated (Δ160) HT-29 (30038, KCLB, RPMI+10% FBS) were prepared in 6-well plates at 5×10^4 cells/well, respectively. After 24 hours, while freshly changing the medium, the sample compounds were added to the wells at a concentration of 1 μM or 5 μM and the plates were allowed to stand for 48 hours.
(§6) As the sample compounds, the compounds synthesized in the examples of the present invention and the compounds of the comparative examples were used.
(§7) After 48 hours, the cell suspensions were collected and centrifuged (1,500 rpm, 4 min.) to obtain the cells, and live cells and dead cells were quantitated (n=2) through a trypan blue (15250-061, Gibco) exclusion assay. The statistical analysis was performed using Excel™ T-test from Microsoft.
(§8) The cell death rates of the compounds of Examples and Comparative Examples were respectively measured and the results are shown in Table 4 as relative ratios to Comparative Example 1.

[2] = system: RON-activated KM12C colon cancer cell line; experiment: Cell killing efficacy, trypan blue exclusion assay, KM12C; assay type: cell-based; conditions: 48 hours
Procedure: as §5, §6, §7, §8

KM12C cells = experiment: Cytotoxicity MTS assay, KM12C; assay type: cell-based; conditions: Homo sapiens, 72 hours
Procedure: as §1, §2, §3, §4

T1 sequence (Q04912 25-1400): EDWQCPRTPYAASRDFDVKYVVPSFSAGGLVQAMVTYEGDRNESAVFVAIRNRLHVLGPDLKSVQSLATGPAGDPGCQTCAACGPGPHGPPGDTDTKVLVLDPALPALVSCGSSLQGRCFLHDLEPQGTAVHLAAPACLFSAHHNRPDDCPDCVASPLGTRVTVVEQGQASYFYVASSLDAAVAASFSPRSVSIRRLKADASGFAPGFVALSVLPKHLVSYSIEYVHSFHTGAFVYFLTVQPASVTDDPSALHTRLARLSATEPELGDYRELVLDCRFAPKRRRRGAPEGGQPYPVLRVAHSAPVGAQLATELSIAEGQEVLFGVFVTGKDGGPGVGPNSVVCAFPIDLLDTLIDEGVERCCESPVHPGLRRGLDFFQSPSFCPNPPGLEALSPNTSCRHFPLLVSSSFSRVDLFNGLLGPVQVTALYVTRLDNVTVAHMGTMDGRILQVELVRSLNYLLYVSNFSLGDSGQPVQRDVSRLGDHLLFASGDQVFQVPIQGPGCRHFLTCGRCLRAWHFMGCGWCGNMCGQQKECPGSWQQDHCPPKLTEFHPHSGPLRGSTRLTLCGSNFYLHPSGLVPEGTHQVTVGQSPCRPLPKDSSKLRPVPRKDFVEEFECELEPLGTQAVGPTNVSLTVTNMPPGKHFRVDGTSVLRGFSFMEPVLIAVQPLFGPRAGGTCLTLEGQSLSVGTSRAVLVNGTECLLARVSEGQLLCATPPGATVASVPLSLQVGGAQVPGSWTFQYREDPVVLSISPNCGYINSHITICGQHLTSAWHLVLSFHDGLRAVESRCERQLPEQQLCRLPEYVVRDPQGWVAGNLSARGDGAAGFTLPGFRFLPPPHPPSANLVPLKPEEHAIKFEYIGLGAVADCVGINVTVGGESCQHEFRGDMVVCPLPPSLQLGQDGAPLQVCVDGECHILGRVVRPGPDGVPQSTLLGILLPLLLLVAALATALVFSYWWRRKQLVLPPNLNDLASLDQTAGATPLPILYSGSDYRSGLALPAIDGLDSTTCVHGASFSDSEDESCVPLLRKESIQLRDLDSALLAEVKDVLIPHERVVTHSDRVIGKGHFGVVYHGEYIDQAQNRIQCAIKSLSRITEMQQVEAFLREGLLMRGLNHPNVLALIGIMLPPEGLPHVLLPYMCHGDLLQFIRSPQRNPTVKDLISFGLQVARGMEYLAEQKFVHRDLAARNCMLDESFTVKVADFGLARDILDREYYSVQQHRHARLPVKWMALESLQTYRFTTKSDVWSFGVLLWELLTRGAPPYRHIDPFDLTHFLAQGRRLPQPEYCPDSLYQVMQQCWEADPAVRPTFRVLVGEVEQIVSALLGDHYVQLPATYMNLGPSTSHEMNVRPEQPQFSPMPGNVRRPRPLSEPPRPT

| SMILES | IC50 (HT29 cells) | IC50 (RON kinase) | Cell death rate (Relative to Comp. Ex. 1) ([1]; 1 μM) | Cell death rate (Relative to Comp. Ex. 1) ([1]; 5 μM) | Cell death rate (Relative to Comp. Ex. 1) ([2]; 1 μM) | Cell death rate (Relative to Comp. Ex. 1) ([2]; 5 μM) | IC50 (KM12C cells) |
| --- | --- | --- | --- | --- | --- | --- | --- |
| CCOc1ccn(-c2ccccc2)c(=O)c1C(=O)Nc1ccc(Oc2ccnc3cc(-c4ccc(CN5CCOCC5)cn4)sc23)c(F)c1.Cl [Example 32, 4-ethoxy-N-[3-fluoro-4-({2-[5-(morpholinomethyl)pyridin-2-yl]thieno[3,2-b]pyridin-7-yl}oxy)phenyl]-2-oxo-1-phenyl-1,2-dihydropyridine-3-carboxamide Hydrochloride] | 325 nM | 0.81 nM | x 1.55 | x 1.45 | x 1.52 | x 1.11 | 3 nM |
| COCCNCc1ccc(-c2cc3nccc(Oc4ccc(NC(=O)c5ccc(C)n(-c6ccccc6)c5=O)cc4F)c3s2)nc1.Cl [Example 21, N-(3-fluoro-4-{[2-(5-{[(2-methoxyethyl)amino]methyl}pyridin-2-yl)thieno[3,2-b]pyridin-7-yl]oxy}phenyl)-6-methyl-2-oxo-1-phenyl-1,2-dihydropyridine-3-carboxamide Hydrochloride] | 1300 nM | 0.56 nM | x 1.30 | x 4.10 | x 0.93 | x 4.06 | 1500 nM |
| COCCNCc1ccc(-c2cc3nccc(Oc4ccc(NC(=O)c5c(C)ccn(-c6ccc(F)cc6)c5=O)cc4F)c3s2)nc1.Cl [Example 25, N-(3-fluoro-4-{[2-(5-{[(2-methoxyethyl)amino]methyl}pyridin-2-yl)thieno[3,2-b]pyridin-7-yl]oxy}phenyl)-1-(4-fluorophenyl)-4-methyl-2-oxo-1,2-dihydropyridine-3-carboxamide Hydrochloride] | 1380 nM | 0.23 nM | x 3.13 | x 2.97 | x 0.44 | x 0.69 | 25 nM |
| CCOc1ccn(-c2ccc(F)cc2)c(=O)c1C(=O)Nc1ccc(Oc2ccnc3cc(-c4ccc(CN5CCN(C)CC5)cn4)sc23)c(F)c1.Cl [Example 33, 4-ethoxy-N-{3-fluoro-4-[(2-{5-[(4-methylpiperazin-1-yl)methyl]pyridin-2-yl}thieno[3,2-b]pyridin-7-yl)oxy]phenyl}-1-(4-fluorophenyl)-2-oxo-1,2-dihydropyridine-3-carboxamide Hydrochloride] | 335 nM | 0.26 nM | x 2.01 | x 1.50 | x 1.99 | x 2.13 | 9 nM |
| CCOc1ccn(-c2ccc(F)cc2)c(=O)c1C(=O)Nc1ccc(Oc2ccnc(N)c2Cl)c(F)c1 [Comp. Ex. 1, N-{4-[(2-amino-3-chloro-4-pyridinyl)oxy]-3-fluorophenyl}-4-ethoxy-1-(4-fluorophenyl)-2-oxo-1,2-dihydro-3-pyridinecarboxamide, reference compound] | 10000 to 20000 nM | 1.11 nM | x 1.00 | x 1.00 | x 1.00 | x 1.00 | 511 nM |
| CCOc1ccn(-c2ccccc2)c(=O)c1C(=O)Nc1ccc(Oc2ccnc3cc(-c4ccc(CN5CCN(C)CC5)cn4)sc23)c(F)c1.Cl [Example 34, Hydrochloride] | 129 nM | 0.23 nM | – | – | – | – | 6 nM |
| Cc1ccc(C(=O)Nc2ccc(Oc3cc4cnn(C)c4cc3-c3cn[nH]c3)c(F)c2)c(=O)n1-c1ccc(F)cc1 [Comp. Ex. 3, N-(3-fluoro-4-(1-methyl-6-(1H-pyrazol-4-yl)-1H-indazol-5-yloxy)phenyl)-1-(4-fluorophenyl)-6-methyl-2-oxo-1,2-dihydropyridine-3-carboxamide, reference compound] | 10800 nM | 3.74 nM | x 0.83 | x 0.52 | x 0.54 | x 0.33 | 117 nM |
| CCOc1ccn(-c2ccc(F)cc2)c(=O)c1C(=O)Nc1ccc(Oc2ccnc3cc(-c4ccc(CN5CCOCC5)cn4)sc23)c(F)c1.Cl [Example 31, 4-ethoxy-N-[3-fluoro-4-({2-[5-(morpholinomethyl)pyridin-2-yl]thieno[3,2-b]pyridin-7-yl}oxy)phenyl]-1-(4-fluorophenyl)-2-oxo-1,2-dihydropyridine-3-carboxamide Hydrochloride] | 609 nM | 0.39 nM | x 2.11 | x 1.21 | x 1.52 | x 1.17 | 7 nM |
| COCCNCc1ccc(-c2cc3nccc(Oc4ccc(NC(=O)c5ccc(C)n(-c6ccc(F)cc6)c5=O)cc4F)c3s2)nc1.Cl [Example 22, N-(3-fluoro-4-{[2-(5-{[(2-methoxyethyl)amino]methyl}pyridin-2-yl)thieno[3,2-b]pyridin-7-yl]oxy}phenyl)-1-(4-fluorophenyl)-6-methyl-2-oxo-1,2-dihydropyridine-3-carboxamide Hydrochloride] | 1180 nM | 0.44 nM | x 1.07 | x 1.71 | x 1.48 | x 1.61 | 1 nM |
| CCOc1ccn(-c2ccccc2)c(=O)c1C(=O)Nc1ccc(Oc2ccnc3cc(-c4ccc(CNCCOC)cn4)sc23)c(F)c1.Cl [Example 1, 4-ethoxy-N-(3-fluoro-4-{[2-(5-{[(2-methoxyethyl)amino]methyl}pyridin-2-yl)thieno[3,2-b]pyridin-7-yl]oxy}phenyl)-2-oxo-1-phenyl-1,2-dihydropyridine-3-carboxamide hydrochloride] | 1100 nM | 0.51 nM | x 4.06 | x 2.41 | x 3.37 | x 2.47 | 45 nM |
| CCOc1ccn(-c2cccc(F)c2)c(=O)c1C(=O)Nc1ccc(Oc2ccnc3cc(-c4ccc(CNCCOC)cn4)sc23)c(F)c1.Cl [Example 14, 4-ethoxy-N-(3-fluoro-4-{[2-(5-{[(2-methoxyethyl)amino]methyl}pyridin-2-yl)thieno[3,2-b]pyridin-7-yl]oxy}phenyl)-1-(3-fluorophenyl)-2-oxo-1,2-dihydropyridine-3-carboxamide Hydrochloride] | 668 nM | 0.45 nM | x 1.59 | x 3.81 | x 1.58 | x 1.43 | 63 nM |
